# Results as given in patent US4657918A, “3-[6-[3-pyrrolidino-1-(4-tolyl)prop-1e-enyl]-2-pyridyl]propionic acid and derivatives having anti-histaminic activity” (priority 1982, dated 1987).
# Experiments:
# H1 histamine receptor = target: T1, H1 histamine receptor (Cavia porcellus, UniProt P31389); test: In vitro antihistaminic activity, isolated guinea-pig ileum longitudinal muscle, histamine concentration-response shift (Schild plot); type: cell-based; settings: negative log of the molar concentration of antagonist which shifts the histamine concentration-response curve 2X to the right, 1 h incubation, read-out: pA2 (converted)
# T1 construct: The longitudinal muscle was isolated from the intact ileum of guinea-pigs; from tissue; host or cells: guinea-pig ileum, longitudinal muscle (Hartly, male 250-400 g)
# Experimental: In vitro antihistiminic activity: The longitudinal muscle was isolated from the intact ileum of guinea-pigs (Hartly, male 250-400 g) and placed in an organ bath under 300 mg tension. After one hour of equilibration, cumulative concentration-response curves (Van Rossum, J. M., Arch. Int. Pharmacodyn. Ther. 143, 299-330, 1963) to histamine were obtained. Following washing, the tissues were incubated for one hour with the test compound and then a second histamine concentration-response curve was run. Shifts to the right of the agonist concentration-response curve produced by the antagonists were used to construct Schild plots (Arunlakshana, O. and Schild, H. O., Br. J. Pharmacol: 14, 48-58, 1959). Regression of Log (dr-1) on Log [B], where dr is an equiactive response in the presence and absence of antagonist and [B] is the molar concentration of antagonist, allowed an estimate of pA2, i.e. the negative log of the concentration of antagonist which shifts the control histamine concentration-response curve 2X to the right.
# [1] = background statement; cited from earlier work
# [2] = antihistamines now in use; some patients; cited from earlier work
# T1 sequence (P31389 whole entry): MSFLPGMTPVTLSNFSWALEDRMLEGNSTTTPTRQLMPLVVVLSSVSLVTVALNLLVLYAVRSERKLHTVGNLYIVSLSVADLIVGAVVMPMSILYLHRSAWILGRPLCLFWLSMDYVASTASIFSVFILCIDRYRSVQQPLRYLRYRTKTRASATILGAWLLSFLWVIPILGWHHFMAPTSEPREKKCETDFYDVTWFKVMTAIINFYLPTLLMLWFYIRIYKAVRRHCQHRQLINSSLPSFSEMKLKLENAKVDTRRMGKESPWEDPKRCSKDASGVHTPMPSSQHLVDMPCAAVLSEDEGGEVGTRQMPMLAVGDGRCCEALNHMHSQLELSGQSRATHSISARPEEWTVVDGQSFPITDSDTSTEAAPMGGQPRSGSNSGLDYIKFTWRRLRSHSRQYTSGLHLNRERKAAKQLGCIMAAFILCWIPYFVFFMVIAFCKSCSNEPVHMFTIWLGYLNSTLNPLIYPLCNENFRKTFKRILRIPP
SMILES,Kb (H1 histamine receptor) [nM],other results
"COc1ccc(/C(=C\CN2CCCC2)c2cccc(/C=C/C(=O)O)n2)cc1 [C, (E)-3-{6-[3-pyrrolidino-1-(4-methoxyphenyl)prop-1E-enyl]-2-pyridyl}acrylicacid]",1.26,–
"Cc1ccc(/C(=C\CN2CCCC2)c2cccc(CCC(=O)O)n2)cc1 [Compound A, 3-{6-[3-Pyrrolidino-1-(4-tolyl)prop-1E-enyl]-2-pyridyl}propionic acid]",0.631,–
"Cc1ccc(/C(=C\CN(C)C)c2cccc(/C=C/C(=O)O)n2)cc1 [Compound B, (E)-3-{6-[3-Dimethylamino-1-(4-tolyl)prop-1E-enyl]-2-pyridyl}acrylic acid]",6.31,–
"O=C(O)/C=C/c1cccc(/C(=C/CN2CCCC2)c2ccc(Cl)cc2)n1 [D, (E)-3-{6-[1-(4-chlorophenyl)-3-pyrrolidinoprop-1E-enyl]-2-pyridyl}acrylicacid]",1,–
"O=C(O)/C=C/c1cccc(/C(=C/CN2CCCC2)c2ccccc2)n1 [E, (E)-3-[6-(1-phenyl-3-pyrrolidinoprop-1E-enyl)-2-pyridyl]acrylic acid]",39.8,–
"Cc1ccc(/C(=C\CN2CCCC2)c2cccc(C(=O)O)n2)cc1 [F, 6-[3-pyrrolidino-1-(4-tolyl)prop-1E-enyl]pyridine-2-carboxylic acid]",1.26,–
"Cc1ccc(/C(=C\CN2CCCC2)c2ccccn2)cc1 [Triprolidine, (E)-1-(4-methylphenyl)-1-(2-pyridyl)-3-pyrrolidinoprop-1-ene]",–,antihistamine potency [1]: one of the most potent antihistamines available
CC(CN1c2ccccc2Sc2ccccc21)N(C)C (centres unmarked) [promethazine],–,sedation or drowsiness [2]: may cause sedation or drowsiness in some patients
